Values joined by “and” are separate entries in the source; they are usually repeats but may differ in a detail not shown here. Identical values can stand only once. Toxic doses and inconclusive results are not listed.
System: P388 leukemia ip, CD2F1 mice, survival T/C
Experiment: NCI In Vivo Anticancer Drug Screen. Data for tumor model P388 Leukemia (intraperitoneal) in CD2F1 (CDF1) mice
Conditions: endpoint: median survival time, higher = longer survival
Method in brief: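 Mice carrying the transplanted tumor received test compound or vehicle. Survival was recorded in each group, and the value is the treated-group measurement divided by that of the vehicle-treated control group.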

COc1cccc2c1C(=O)c1c(O)c3c(c(O)c1C2=O)CC(O)(C(=O)CO)CC3OC1CC(N)C(O)C(C)O1 (configuration not stated)
T/C (dose: 0.03 mg/kg/injection, schedule: Q04DX003 (ip), vehicle: other): 104 % of control
T/C (dose: 0.05 mg/kg/injection, schedule: Q04DX003 (ip), vehicle: other): 104 % of control
T/C (dose: 0.05 mg/kg/injection, schedule: Q04DX003 (ip), vehicle: saline): 110 % of control
T/C (dose: 0.08 mg/kg/injection, schedule: Q04DX003 (ip), vehicle: other): 115 % of control
T/C (dose: 0.1 mg/kg/injection, schedule: Q04DX003 (ip), vehicle: other): 98 % of control
T/C (dose: 0.12 mg/kg/injection, schedule: Q04DX003 (ip), vehicle: other): 122 % of control
T/C (dose: 0.3 mg/kg/injection, schedule: Q04DX003 (ip), vehicle: other): 112 % of control
T/C (dose: 0.38 mg/kg/injection, schedule: Q01DX009 (ip), vehicle: water): 150 % of control
T/C (dose: 0.5 mg/kg/injection, schedule: Q04DX003 (ip), vehicle: other): 100 % of control
T/C (dose: 0.6 mg/kg/injection, schedule: Q04DX003 (ip), vehicle: saline): 154 % of control
T/C (dose: 0.75 mg/kg/injection, schedule: Q01DX009 (ip), vehicle: water): 159 % of control
T/C (dose: 1.0 mg/kg/injection, schedule: Q04DX003 (ip), vehicle: other): 100 % of control
T/C (dose: 1.0 mg/kg/injection, schedule: Q04DX003 (ip), vehicle: saline): 110 % of control and 106 % of control
T/C (dose: 1.13 mg/kg/injection, schedule: Q04DX003 (ip), vehicle: water): 120 % of control
T/C (dose: 1.3 mg/kg/injection, schedule: Q04DX003 (ip), vehicle: other): 152 % of control
T/C (dose: 1.3 mg/kg/injection, schedule: Q04DX003 (ip), vehicle: saline): 156 % of control
T/C (dose: 1.5 mg/kg/injection, schedule: Q01DX009 (ip), vehicle: water): 165 % of control
T/C (dose: 1.56 mg/kg/injection, schedule: Q04DX003 (ip), vehicle: saline): 163 % of control
T/C (dose: 1.9 mg/kg/injection, schedule: Q04DX003 (ip), vehicle: other): 153 % of control
T/C (dose: 1.9 mg/kg/injection, schedule: Q04DX003 (ip), vehicle: saline): 156 % of control
T/C (dose: 2.0 mg/kg/injection, schedule: Q04DX003 (ip), vehicle: other): 97 % of control
T/C (dose: 2.0 mg/kg/injection, schedule: Q04DX003 (ip), vehicle: saline): 113 % of control and 116 % of control
T/C (dose: 2.25 mg/kg/injection, schedule: Q04DX003 (ip), vehicle: water): 121 % of control
T/C (dose: 2.8 mg/kg/injection, schedule: Q04DX003 (ip), vehicle: other): 169 % of control
T/C (dose: 2.8 mg/kg/injection, schedule: Q04DX003 (ip), vehicle: saline): 182 % of control
T/C (dose: 2.9 mg/kg/injection, schedule: Q01DX009 (ip), vehicle: saline): 104 % of control
T/C (dose: 3.0 mg/kg/injection, schedule: Q01DX009 (ip), vehicle: water): 158 % of control
T/C (dose: 3.0 mg/kg/injection, schedule: Q04DX003 (ip), vehicle: water): 114 % of control
T/C (dose: 3.12 mg/kg/injection, schedule: Q04DX003 (ip), vehicle: saline): 170 % of control
T/C (dose: 3.13 mg/kg/injection, schedule: Q01DX009 (ip), vehicle: water): 163 % of control
T/C (dose: 3.13 mg/kg/injection, schedule: Q04DX003 (ip), vehicle: other): 118 % of control
T/C (dose: 4.0 mg/kg/injection, schedule: Q04DX003 (ip), vehicle: other): 115 % of control
T/C (dose: 4.0 mg/kg/injection, schedule: Q04DX003 (ip), vehicle: saline): 119 % of control
T/C (dose: 4.2 mg/kg/injection, schedule: Q04DX003 (ip), vehicle: other): 179 % of control
T/C (dose: 4.2 mg/kg/injection, schedule: Q04DX003 (ip), vehicle: saline): 180 % of control
T/C (dose: 5.8 mg/kg/injection, schedule: Q01DX009 (ip), vehicle: saline): 124 % of control
T/C (dose: 6.0 mg/kg/injection, schedule: Q01DX009 (ip), vehicle: water): 183 % of control
T/C (dose: 6.25 mg/kg/injection, schedule: Q01DX009 (ip), vehicle: water): 200 % of control
T/C (dose: 6.25 mg/kg/injection, schedule: Q04DX003 (ip), vehicle: other): 120 % of control
T/C (dose: 6.25 mg/kg/injection, schedule: Q04DX003 (ip), vehicle: saline): 170 % of control
T/C (dose: 6.3 mg/kg/injection, schedule: Q04DX003 (ip), vehicle: other): 179 % of control
T/C (dose: 6.3 mg/kg/injection, schedule: Q04DX003 (ip), vehicle: saline): 168 % of control
T/C (dose: 7.5 mg/kg/injection, schedule: Q04DX003 (ip), vehicle: clinical formulation): 161 % of control
T/C (dose: 8.0 mg/kg/injection, schedule: Q04DX003 (ip), vehicle: saline): 109 % of control
T/C (dose: 9.0 mg/kg/injection, schedule: Q04DX003 (ip), vehicle: water): 121 % of control
T/C (dose: 9.5 mg/kg/injection, schedule: Q04DX003 (ip), vehicle: other): 179 % of control
T/C (dose: 9.5 mg/kg/injection, schedule: Q04DX003 (ip), vehicle: saline): 208 % of control
T/C (dose: 10.0 mg/kg/injection, schedule: Q04DX003 (ip), vehicle: water): 112 % of control
T/C (dose: 12.0 mg/kg/injection, schedule: Q01DX009 (ip), vehicle: water): 204 % of control
T/C (dose: 12.0 mg/kg/injection, schedule: Q04DX003 (ip), vehicle: water): 116 % of control
T/C (dose: 12.5 mg/kg/injection, schedule: Q01DX009 (ip), vehicle: water): 229 % of control
T/C (dose: 14.2 mg/kg/injection, schedule: Q04DX003 (ip), vehicle: other): 198 % of control
T/C (dose: 14.2 mg/kg/injection, schedule: Q04DX003 (ip), vehicle: saline): 193 % of control
T/C (dose: 15.0 mg/kg/injection, schedule: Q04DX003 (ip), vehicle: clinical formulation): 152 % of control
T/C (dose: 16.0 mg/kg/injection, schedule: Q04DX003 (ip), vehicle: saline): 119 % of control
T/C (dose: 21.3 mg/kg/injection, schedule: Q04DX003 (ip), vehicle: other): 207 % of control
T/C (dose: 21.3 mg/kg/injection, schedule: Q04DX003 (ip), vehicle: saline): 86 % of control
T/C (dose: 22.5 mg/kg/injection, schedule: Q04DX003 (ip), vehicle: water): 109 % of control and 115 % of control
T/C (dose: 23.4 mg/kg/injection, schedule: Q01DX009 (ip), vehicle: saline): 123 % of control and 217 % of control
T/C (dose: 25.0 mg/kg/injection, schedule: Q01DX009 (ip), vehicle: water): 220 % of control
T/C (dose: 25.0 mg/kg/injection, schedule: Q04DX003 (ip), vehicle: saline): 98 % of control
T/C (dose: 32.0 mg/kg/injection, schedule: Q04DX003 (ip), vehicle: other): 160 % of control
T/C (dose: 32.0 mg/kg/injection, schedule: Q04DX003 (ip), vehicle: saline): 172 % of control
T/C (dose: 36.0 mg/kg/injection, schedule: Q04DX003 (ip), vehicle: water): 163 % of control
T/C (dose: 44.0 mg/kg/injection, schedule: Q04DX003 (ip), vehicle: water): 110 % of control
T/C (dose: 45.0 mg/kg/injection, schedule: Q04DX003 (ip), vehicle: water): 124 % of control
T/C (dose: 48.0 mg/kg/injection, schedule: Q04DX003 (ip), vehicle: other): 87 % of control
T/C (dose: 48.0 mg/kg/injection, schedule: Q04DX003 (ip), vehicle: water): 175 % of control and 294 % of control
T/C (dose: 50.0 mg/kg/injection, schedule: Q01DX009 (ip), vehicle: water): 117 % of control
T/C (dose: 50.0 mg/kg/injection, schedule: Q04DX003 (ip), vehicle: other): 161 % of control
T/C (dose: 64.0 mg/kg/injection, schedule: Q04DX003 (ip), vehicle: saline): 167 % of control and 153 % of control
T/C (dose: 72.0 mg/kg/injection, schedule: Q04DX003 (ip), vehicle: other): 93 % of control
T/C (dose: 72.0 mg/kg/injection, schedule: Q04DX003 (ip), vehicle: water): 196 % of control
T/C (dose: 80.0 mg/kg/injection, schedule: Q04DX003 (ip), vehicle: water): 118 % of control
T/C (dose: 90.0 mg/kg/injection, schedule: Q04DX003 (ip), vehicle: water): 159 % of control and 174 % of control
T/C (dose: 108.0 mg/kg/injection, schedule: Q04DX003 (ip), vehicle: other): 88 % of control
T/C (dose: 108.0 mg/kg/injection, schedule: Q04DX003 (ip), vehicle: water): 163 % of control
T/C (dose: 128.0 mg/kg/injection, schedule: Q04DX003 (ip), vehicle: other): 182 % of control
T/C (dose: 128.0 mg/kg/injection, schedule: Q04DX003 (ip), vehicle: saline): 204 % of control and 184 % of control
T/C (dose: 160.0 mg/kg/injection, schedule: Q04DX003 (ip), vehicle: water): 95 % of control
T/C (dose: 180.0 mg/kg/injection, schedule: Q04DX003 (ip), vehicle: water): 168 % of control
T/C (dose: 256.0 mg/kg/injection, schedule: Q04DX003 (ip), vehicle: other): 175 % of control
T/C (dose: 256.0 mg/kg/injection, schedule: Q04DX003 (ip), vehicle: saline): 110 % of control and 213 % of control
T/C (dose: 267.0 mg/kg/injection, schedule: Q04DX003 (ip), vehicle: water): 109 % of control
T/C (dose: 360.0 mg/kg/injection, schedule: Q04DX003 (ip), vehicle: water): 97 % of control
T/C (dose: 400.0 mg/kg/injection, schedule: Q04DX003 (ip), vehicle: water): 99 % of control
T/C (dose: 512.0 mg/kg/injection, schedule: Q04DX003 (ip), vehicle: saline): 90 % of control
